From patent publication US5350681A, “Enzymatic membrane method for the synthesis and separation of peptides” (The Coca-Cola Company, priority 1992, dated 1994) come the findings set out here.

For the series the following is noted: pH 5.

As to `CC(C)OC(=O)[C@@H](N)Cc1ccccc1` [L-phe-O-<, L-phenylalanine isopropyl ester], the “chemical stability of L-phe-O-< over L-phe-OMe” value is reported as “seven times higher” and the “stability of the ester (hydrolysis to L-phenylalanine)” value is “stable”.
